We go through 13 molecules from patent publication US20240124483A1, “Methods for the Treatment of Fibrotic Disease” (SHY Therapeutics, LLC, priority 2021, published 2024).

The target in test [1] is KRas Q61H mutant (Homo sapiens (Human), UniProt P01116, Q61H). Description: Ras GTP Binding Domain Inhibition Assay, KRas Q61H mutant. How it is done:
A Ras Superfamily Activity Assay (as disclosed in International Application No. PCT/US2018/038613, filed Jun. 20, 2018, which is incorporated by reference in its entirety) was used as a specific assay to evaluate compounds against the following for the following Ras Superfamily proteins: KRas wild type, KRas Q61H mutant, KRas G12C mutant, KRas G12D mutant, Rac-1, and Rho-A.
Buffer-I: • 25 mM Tris-HCl, pH 7.4 • 27 mM KCl • 137 mM NaCl • 1 mM MgCl2 • 1 mM DTT
Buffer-II: • 50 mM Tris-HCl, pH 7.0 • 1 mM MgCl2 • 1 mM DTT
The small GTPases proteins: KRas wild type. KRas Q61H mutant, KRas G12C mutant, KRas G12D mutants, Rac-1, and Rho-A were expressed as His-tagged proteins. In addition, the Guanosine nucleotide Exchange Factor (GEF) Sos protein (residues 556-1049) was expressed as a His-tagged protein. In cells, the guanine nucleotide exchange factor Sos protein promotes activation of Ras proteins by stimulating an exchange of GDP for GTP. The inclusion of Sos to the Ras GTP binding domain inhibition assay may be considered as an alternative representation of physiological cellular conditions for evaluating the inhibitory activity of some of the tested small molecules.
For the assay, all purified small GTPases proteins were diluted in Buffer-I or Buffer-II to a final concentration of 10-30 μg/mL. 200 μL of each diluted protein was added to a nickel-coated 96-well plate and incubated overnight at 4° C. Then the protein solution was discarded and 200 μL of Buffer-I or Buffer-II was added to each well in the presence of 1% DMSO. Compounds to be tested were added to the protein-coated wells at final concentration of 20 μM, and incubated for 3 hours at room temperature with and without 10-30 μg/mL of Sos added to the final hour of the incubation. When performing IC50 measurements a serial dilution of all tested concentrations was added. Then Cy3-GTP or Cy5-GTP was added to each well to a final concentration of 100 nM. The labeled GTP was incubated for 45 minutes at room temperature. Following GTP incubation, wells were washed 3× in Buffer-I or Buffer-II and 200 μL of Buffer-I or Buffer-II was added to each well. Following washes, the amount of bound labeled-GTP was measured using a SpectraMax M3 (Molecular Devices).

Test [2] has as its system AKT phosphorylation. Description: Western AKT Cell-Based Phosphorylation Assay. As to conditions: Homo sapiens, PANC-1, 6 hours, EGF 1.5 ng/ml, read-out: % inh of AKT phosphorylation in PANC-1. How it is done: Human tumor-derived pancreatic cancer cell line Panc-1 was purchased from American Type Culture Collection and grown in complete DMEM-High Glucose supplemented with penicillin (100 U/mL), streptomycin (100 μg/mL), and 10% heat-inactivated FBS at 37° C. in a humidified incubator with 5% CO2.
(§1) Method: Cells were plated at 350000 cells/well density in a 12-well plate, allowed 3 hours to adhere to the plate, then starved in the appropriate medium in the presence of 0.5% FBS overnight. The small molecules to be tested were added to the cells in the final concentration of 10 μM in the presence of 0.3% DMSO for 6 hours incubation at 37° C. Next, cells were stimulated with 1.5 ng/ml EGF for 15 minutes then cells were lysed with lysis buffer containing 1% Triton X-100, EDTA, and Halt™ Protease & Phosphatase Inhibitor Cocktail (Thermo Scientific). Protein concentration was assessed by BCA protein assay (Thermo Scientific). Phosphorylation level of Akt was determined by western blot.
(§2) Western blot protocol: Equal amounts of protein (15-50 μg) were separated by SDS-PAGE and transferred to nitrocellulose membranes (Invitrogen by Thermo Fisher Scientific). The membrane was stained with Ponceau S Stain (Boston BioProducts) to verify uniform protein loading. Membranes were blocked with 10% milk and phosphorylation levels of Akt were assessed by incubating overnight at 4° C. with anti-phospho-Akt (Ser473) antibody (Cell Signaling) followed by HRP-conjugated secondary antibody (Jackson Immunoresearch, West Grove, PA). Bands were incubated in Amersham ECL Prime Western Blotting Detection Reagent (GE Healthcare) and visualized using the ChemiDoc MP imaging system (Bio-Rad).

Test [3] concerns MiaPaca2. Description: MiaPaca2 proliferation. As to conditions: Homo sapiens, MIA PaCa-2; for inhibition at 10 µM: read-out: % inh of proliferation in MiaPaca2. Type of test: cell-based.
The subject of test [4] is ERK1/2 phosphorylation. Description: Western ERK1/2 Cell-Based Phosphorylation Assay. As to conditions: Homo sapiens, PANC-1, 6 hours, EGF 1.5 ng/ml, read-out: % inh of ERK1/2 phosphorylation in PANC-1. As for the experimental part: Cell lines: Human tumor-derived pancreatic cancer cell line Panc-1 was purchased from American Type Culture Collection and grown in complete DMEM-High Glucose, supplemented with penicillin (100 U/mL), streptomycin (100 μg/mL), and 10% heat-inactivated FBS at 37° C. in a humidified incubator with 5% CO2.
as §1, with “C. For IC50 value determination, serial dilutions of compounds were added to cells under the same conditions.” for “C.”, “ERK1/2” for “Akt”
as §2, with “ERK1/2” for “Akt”, “anti-phospho-p44/42 (Thr202/Tyr204)” for “anti-phospho-Akt (Ser473)”

[5] abbreviates: + SOS, read-out: KRas Q61H mutant + SOS: % inh.
Setting [6] is: without SOS, read-out: KRas Q61H mutant: % inh.

As a reminder, the IC50 is the concentration that gives 50% inhibition.

The structures appear in SMILES notation. Where two headings read alike, the source gives them in different places.

Chain of KRas Q61H mutant (P01116 other isoform, or with tags, fused parts or gaps Q61H): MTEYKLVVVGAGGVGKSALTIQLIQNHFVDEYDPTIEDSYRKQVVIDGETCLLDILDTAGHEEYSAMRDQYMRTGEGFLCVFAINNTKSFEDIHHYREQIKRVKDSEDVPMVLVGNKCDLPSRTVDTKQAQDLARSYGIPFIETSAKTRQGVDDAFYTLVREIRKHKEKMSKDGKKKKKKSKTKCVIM

Turning to `COc1cccc(-c2sc3nc(-c4nccn4C)nc(NC4CCC(OC)C4)c3c2C)c1F` (racemic) [Compound 10, rac-6-(2-Fluoro-3-methoxyphenyl)-N-((1R,3S)-3-methoxycyclopentyl)-5-methyl-2-(1-methyl-1H-imidazol-2-yl)thieno[2,3-d]pyrimidin-4-amine and rac-6-(2-Fluoro-3-methoxyphenyl)-N-((1R,3R)-3-methoxycyclopentyl)-5-methyl-2-(1-methyl-1H-imidazol-2-yl)thieno[2,3-d]pyrimidin-4-amine], the inhibition at 20 µM in test [1] (setting [5]) and in test [1] (setting [6]) was 46 to 75% throughout.
In the case of `COCCn1ccc(-c2sc3nc(-c4nccn4C)nc(N[C@@H]4CC[C@H](OC)C4)c3c2C)n1` (racemic) [Compound 39, rac-N-((1R,3S)-3-Methoxycyclopentyl)-6-(1-(2-methoxyethyl)-1H-pyrazol-3-yl)-5-methyl-2-(1-methyl-1H-imidazol-2-yl)thieno[2,3-d]pyrimidin-4-amine], the inhibition at 10 µM in test [2] lay in the range of 76 to 100%; in test [3], 76 to 100%; in test [4], 1 to 25%. This molecule also displayed an IC50 in test [3] of 5 to 10 µM. The inhibition at 20 µM in test [1] (setting [5]) and in test [1] (setting [6]) was 76 to 100% throughout.
For `COc1cccc(-c2sc3nc(-c4nccn4C)nc(N[C@@H]4CC[C@@H](OC)C4)c3c2-c2ccccc2)c1F` (racemic) [Compound 41, 6-(2-Fluoro-3-methoxyphenyl)-N-((1R,3R)-3-methoxycyclopentyl)-2-(1-methyl-1H-imidazol-2-yl)-5-phenylthieno[2,3-d]pyrimidin-4-amine], the inhibition at 10 µM in test [2], in test [3] and in test [4] was 76 to 100% each time. The same molecule returned an IC50 in test [3] of 1 to 4.99 µM. Further, the values for the inhibition at 20 µM in test [1] (setting [5]) and in test [1] (setting [6]) were 76 to 100% and 26 to 45%, respectively.
As to `CO[C@H]1CC[C@@H](Nc2nc(-c3nccn3C)nc3sc(-c4ccn(C(C)C)n4)c(C)c23)C1` (racemic) [Compound 12, rac-6-(1-Isopropyl-1H-pyrazol-3-yl)-N-((1R,3S)-3-methoxycyclopentyl)-5-methyl-2-(1-methyl-1H-imidazol-2-yl)thieno[2,3-d]pyrimidin-4-amine], the inhibition at 20 µM in test [1] (setting [5]) and in test [1] (setting [6]) was 76 to 100% in each case. In addition, the IC50 in test [1] (+ SOS) fell in the range of 5 to 10 µM.
As to `CO[C@H]1CC[C@@H](Nc2nc(-c3nccn3C)nc3sc(-c4ccn(C)n4)c(-c4ccccc4)c23)C1` (racemic) [Compound 5, rac-N-((1R,3S)-3-Methoxycyclopentyl)-2-(1-methyl-1H-imidazol-2-yl)-6-(1-methyl-1H-pyrazol-3-yl)-5-phenylthieno[2,3-d]pyrimidin-4-amine], the inhibition at 20 µM in test [1] (setting [5]) lay within 76 to 100%; in test [1] (setting [6]), 26 to 45%.
On to `COC1CCN(c2nc(-c3nccn3C)nc3sc(-c4ccn(C)n4)c(-c4ccccc4)c23)CC1` [Compound 6, 4-(4-Methoxypiperidin-1-yl)-2-(1-methyl-1H-imidazol-2-yl)-6-(1-methyl-1H-pyrazol-3-yl)-5-phenylthieno[2,3-d]pyrimidine], for which the inhibition at 20 µM in test [1] (setting [5]) and in test [1] (setting [6]) was 46 to 75% each time.
Turning to `COCCNc1nc(-c2nccn2C)nc2sc(-c3cccc(OC)c3Cl)c(-c3ccc(OC)cc3)c12` [Compound 7, 6-(2-Chloro-3-methoxyphenyl)-N-(2-methoxyethyl)-5-(4-methoxyphenyl)-2-(1-methyl-1H-imidazol-2-yl)thieno[2,3-d]pyrimidin-4-amine], the inhibition at 20 µM in test [1] (setting [5]) is 76 to 100%; in test [1] (setting [6]) it was 26 to 45%.
Regarding `CO[C@@H]1CC[C@H](Nc2nc(-c3nccn3C)nc3sc(-c4ccn(C(C)C)n4)c(-c4ccccc4)c23)C1` (single isomer, unassigned) [Compound 11], the inhibition at 20 µM is 76 to 100% in test [1] (setting [5]) and 46 to 75% in test [1] (setting [6]). Moreover, the IC50 in test [1] (+ SOS) lay in the range of 1 to 4.99 µM.
`COCCNc1nc(-c2nccn2C)nc2sc(-c3ccccc3)c(-c3ccccc3)c12` [Compound 1, N-(2-Methoxyethyl)-2-(1-methyl-1H-imidazol-2-yl)-5,6-diphenylthieno[2,3-d]pyrimidin-4-amine]: the inhibition at 20 µM in test [1] (setting [5]) and in test [1] (setting [6]) was 46 to 75% throughout.
On to `COCCNc1nc(-c2nccn2C)nc2sc(-c3cccc(OC)c3Cl)c(-c3ccccc3)c12` [Compound 9, 6-(2-Chloro-3-methoxyphenyl)-N-(2-methoxyethyl)-2-(1-methyl-1H-imidazol-2-yl)-5-phenylthieno[2,3-d]pyrimidin-4-amine], for which the values for the inhibition at 20 µM in test [1] (setting [5]) and in test [1] (setting [6]) were 76 to 100% and 46 to 75%, respectively.
In the same order, the values of `COCCNc1nc(-c2cn(C)cn2)nc2sc(-c3cccc(OC)c3Cl)c(-c3ccc(OC)cc3)c12` [Compound 8, 6-(2-Chloro-3-methoxyphenyl)-N-(2-methoxyethyl)-5-(4-methoxyphenyl)-2-(1-methyl-1H-imidazol-4-yl)thieno[2,3-d]pyrimidin-4-amine] are 76 to 100% and 46 to 75%.
The matching figures for `COCCCNc1nc(-c2nccn2C)nc2sc(-c3ccccc3)c(-c3ccccc3)c12` [Compound 3, N-(3-Methoxypropyl)-2-(1-methyl-1H-imidazol-2-yl)-5,6-diphenylthieno[2,3-d]pyrimidin-4-amine]: 46 to 75% and 46 to 75%.
As to `COCCn1ccnc1-c1nc(N[C@H]2C[C@@H](OC)C2)c2c(-c3ccccc3)c(-c3ccn(C)n3)sc2n1` [Compound 13, N-((1s,3s)-3-methoxycyclobutyl)-2-(1-(2-methoxyethyl)-1H-imidazol-2-yl)-6-(1-methyl-1H-pyrazol-3-yl)-5-phenylthieno[2,3-d]pyrimidin-4-amine], the inhibition at 20 µM in test [1] (setting [5]) and in test [1] (setting [6]) was 76 to 100% throughout. For the same molecule, in test [1] (+ SOS), the IC50 lay within 1 to 4.99 µM.
